Consider four compounds from ChEMBL document CHEMBL1201862, “PubChem BioAssay data set” (2004).

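Growth conditions: 96-well plates. Treatment: test compound, 48 hours, 5 concentrations. Analysis: linear interpolation between bracketing concentrations; unreached endpoints set to highest concentration. Abbreviation: GI50, concentration required for 50% inhibition of growth.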 Calls of active or inactive are those of the source. Rule as the data show it: active = GI50 up to about 1.1 µM and inactive = higher.

Among the test systems are COLO 205; EKVX; HCT-116; HOP-62; MCF7; MDA-MB-231; MDA-MB-435; NCI-H460; NCI-H522; OVCAR-4; OVCAR-8; SF-268; SF-539; SK-MEL-28; SN12C; SNB-19; SR; CAKI-1; UO-31.
Holding throughout (experiment): growth of human tumour cells (NCI), 48 h

Take `c1ccc2c(c1)SCCCSCCCS2`: the GI50 in the experiment on COLO 205 is 74.5 µM (inactive); in the experiment with EKVX, > 100 µM (inactive); in the experiment with HCT-116, 63.4 µM (inactive); in the experiment with HOP-62 it was > 100 µM (inactive); with MCF7, > 100 µM (inactive); in the experiment on MDA-MB-231, 65.3 µM (inactive). Besides, the GI50 in the experiment on MDA-MB-435 is > 100 µM (inactive); in the experiment with NCI-H460 it was > 100 µM (inactive); in the experiment on NCI-H522, > 100 µM (inactive); in the experiment on OVCAR-4, 76 µM (inactive); in the experiment on OVCAR-8, > 100 µM (inactive); in the experiment with SF-268 it was > 100 µM (inactive). The GI50 with SF-539 is > 100 µM (inactive); in the experiment on SK-MEL-28 it was > 100 µM (inactive); with SN12C, > 100 µM (inactive); with SNB-19 it was > 100 µM (inactive); with SR, 50.5 µM (inactive).
Consider `CC1CCC2C(C)C(OC(=O)CCC(=O)O)OC3OC4(C)CCC1C32OO4` (stereo not drawn), for which the GI50 is 12.1 µM (inactive) in the experiment on CAKI-1; 1.42 µM (inactive) in the experiment with COLO 205; 6.27 µM (inactive) in the experiment with EKVX; 0.759 µM (active) with HCT-116; 16.6 µM (inactive) in the experiment on HOP-62; 4.5 µM (inactive) in the experiment on MCF7. Also, the GI50 was > 100 µM (inactive) in the experiment on MDA-MB-231; 1.51 µM (inactive) in the experiment on MDA-MB-435; 7.31 µM (inactive) in the experiment with NCI-H460; 7.01 µM (inactive) in the experiment with OVCAR-4; 3.47 µM (inactive) in the experiment on OVCAR-8; 16.7 µM (inactive) in the experiment on SF-268. In addition, the GI50 with SF-539 is 11 µM (inactive); in the experiment with SK-MEL-28 it was 37.5 µM (inactive); in the experiment with SN12C, 18 µM (inactive); with SNB-19, 37.6 µM (inactive); with SR it was 0.519 µM (active); in the experiment with UO-31, 1.33 µM (inactive).
Consider `COC(=O)C1(Cc2ccccc2)Cc2ccccc2C1=O` (stereo not drawn), for which the GI50 in the experiment with CAKI-1 is 83 µM (inactive); in the experiment with COLO 205, 49.9 µM (inactive); in the experiment on EKVX, 30.3 µM (inactive); with HCT-116, 36.1 µM (inactive); in the experiment on HOP-62, 72.1 µM (inactive); in the experiment on MCF7 it was 42.1 µM (inactive). Besides, the GI50 was 83.6 µM (inactive) in the experiment with MDA-MB-231; 22.6 µM (inactive) in the experiment with MDA-MB-435; 46 µM (inactive) in the experiment on NCI-H460; 25.4 µM (inactive) in the experiment with OVCAR-4; 50.8 µM (inactive) with OVCAR-8; 70.8 µM (inactive) in the experiment on SF-268. Besides, the GI50 was > 100 µM (inactive) with SF-539; 65.9 µM (inactive) in the experiment on SK-MEL-28; 35.2 µM (inactive) in the experiment with SN12C; 23.8 µM (inactive) in the experiment with SR; 23.3 µM (inactive) in the experiment on UO-31.
For `Cc1ccc(N2C(=O)C=C(C3=C(O)C(=O)N(c4ccc(C)cc4)C3=O)C2=O)cc1`, the GI50 in the experiment on COLO 205, in the experiment on EKVX, in the experiment on HCT-116, with HOP-62, in the experiment on MCF7 and in the experiment with MDA-MB-231 was > 100 µM (inactive) each time. Also, the GI50 with MDA-MB-435, in the experiment with NCI-H460, with OVCAR-4, in the experiment on OVCAR-8, with SF-268 and in the experiment on SK-MEL-28 was > 100 µM (inactive) in each case. Also, the GI50 in the experiment on SN12C, with SNB-19, with SR and in the experiment on UO-31 was > 100 µM (inactive) each time.
